Measured values as given in paper PMC8495455, “Discovery of a transdermally deliverable pentapeptide for activating AdipoR1 to promote hair growth” (EMBO Molecular Medicine, 2021).

Key:
[1] = test system: HGF protein; assay: Growth factor protein quantitation in DP cell medium, HGF; assay type: cell-based, human; conditions: for protein_HGF: DP cell medium
From the text: Next, we investigated the downstream effects of P5 on hair growth factor genes and proteins in DP cells. […] We tested whether P5 can also increase the mRNA levels and proteins of hair growth factors in DP cells: IGF‐1, VEGF, HGF, platelet‐derived growth factor alpha (PDGFA), and fibroblast growth factor (FGF) 7, which are known to induce or maintain the anagen phase of the hair cycle (Jindo et al, [1994]; Philpott et al, [1994]; Yano et al, [2001]; Jang, [2005]; Tomita et al, [2006]; Iino et al, [2007]).
Human DP cells were grown on a 100‐mm cell culture dish to 100% confluency. After washed by PBS three times, the cells were cultured with serum‐free DMEM and treated with P5. After 48 h, the medium was collected and filtered by a […]. The filtrate was then concentrated using a centrifugal concentrator (Vivaspin 6, 10‐kDa molecular weight cutoff, centrifuged 2,600 g at 4°C for 13 min, Sartorius Stedim Biotech). The signals of each protein in the concentrated media were detected and quantified, based on the enzyme‐linked immunosorbent assay (Human Cytokine Antibody Array C2000, RayBiotech).

[2] = test system: p-AMPK in HF cells of Adipoq−/− mice; assay: IF p-AMPK in HF cells of Adipoq−/− mice after topical P5; assay type: in vivo; conditions: Adipoq−/− mouse, topical 0.1 mM P5
From the text: We also evaluated P5 effect in Adipoq ^−/− mouse (Ma et al, [2002]). […] Skin pigmentation was prominent in P5‐treated Adipoq ^−/− mice at day 14 (Fig 4E). […] At day 35, unlike vehicle‐treated Adipoq ^−/− mice showing little pigmentation, P5‐treated Adipoq ^−/− mice manifested hairs with pigmentation (Fig 4E). […] The DP cells in P5‐treated Adipoq ^−/− mice expressed versican (Fig 4G).
Paraffin‐embedded mouse cutaneous back tissue was sectioned (4 μm thickness) and stained with hematoxylin and eosin. […] IF intensity was observed and recorded with a Nikon Eclipse Ni‐E fluorescence microscope (Nikon).
For the hair cycle modulation experiment, Adipoq ^−/− (stock #008195; JAX) (Ma et al, [2002]), Adipor1 ^−/− (Yamauchi et al, [2007]; Okada‐Iwabu et al, [2013]), or C57BL/6 (KOATECH) female mice was used (Müller‐Röver et al, [2001]). […] The mouse hair growth score (a value from 0 to 100 based on the skin pigmentation and hair shaft density) was monitored and documented at designated days with the experimenters being blind to the conditions, following a previous study (Chai et al, [2019]). […] On day 35, we obtained dorsal cutaneous tissue for histological analysis: anagen induction scores (calculated using an assigned arbitrary score; telogen = 1, anagen I–VI = 2–7) (Müller‐Röver et al, [2001]).

Question: With “GLYYF [P5, GST-fused (GST-P5) in pulldown assays]” as the substance, how does the protein_HGF ([1]; P5 5μM, relative to Control = 1, replicate 1) read?
Answer: 1.103

Question: What about the protein_HGF ([1]; P5 5μM, relative to Control = 1, replicate 2) of the same substance?
Answer: 1.31

Question: What about the protein_HGF ([1]; P5 5μM, relative to Control = 1, replicate 3) of the same substance?
Answer: 1.677

Question: And the protein_HGF ([1]; P5 25μM, relative to Control = 1, replicate 1)?
Answer: 1.711

Question: What about the protein_HGF ([1]; P5 25μM, relative to Control = 1, replicate 2) of the same substance?
Answer: 2.432

Question: What about the protein_HGF ([1]; P5 25μM, relative to Control = 1, replicate 3) of the same substance?
Answer: 3.924

Question: What about the “HGF protein expression level” value ([1]; P5-treated DP cells, 48 h medium, n = 3) of the same substance?
Answer: elevated

Question: And the “p-AMPK in ORS cells of telogen HFs” value [2]?
Answer: upregulation
